Experimental data published in ChEMBL document CHEMBL1667764, “Characterization of the baicalein-bovine serum albumin complex without or with Cu2+ or Fe3+ by spectroscopic approaches” (Eur J Med Chem, 2011).

How the values were obtained:
Details in all cases: cattle
[1] = molecular target: T1, Albumin (Bos taurus, UniProt P02769); experiment: Binding affinity to bovine serum albumin using 6x10'-6 Lmol'-1 at pH 7.4 at 310K by Stern-Volmer plot
[2] = molecular target: T1, Albumin; experiment: Binding affinity to bovine serum albumin using 3x10'-6 Lmol'-1 at pH 7.4 at 310K by Stern-Volmer plot
[3] = molecular target: T1, Albumin; experiment: Binding affinity to bovine serum albumin using 4.5x10'-6 Lmol'-1 at pH 7.4 at 310K by Stern-Volmer plot
[4] = molecular target: T1, Albumin; experiment: Binding affinity to bovine serum albumin at pH 7.4 at 310K by fluorescence quenching
[5] = molecular target: T1, Albumin; experiment: Binding affinity to bovine serum albumin at pH 7.4 at 310K in presence of Cu2+ by fluorescence quenching
[6] = molecular target: T1, Albumin; experiment: Binding affinity to bovine serum albumin at pH 7.4 at 310K in presence of Fe3+ by fluorescence quenching
[7] = molecular target: T1, Albumin; experiment: Binding affinity to bovine serum albumin at pH 7.4 at 310K by fluorescence quenching logarithmic plot
[8] = molecular target: T1, Albumin; experiment: Binding affinity to bovine serum albumin at pH 7.4 at 310K in presence of Cu2+ by fluorescence quenching logarithmic plot
[9] = molecular target: T1, Albumin; experiment: Binding affinity to bovine serum albumin at pH 7.4 at 310K in presence of Fe3+ by fluorescence quenching logarithmic plot

T1 sequence (P02769 whole entry): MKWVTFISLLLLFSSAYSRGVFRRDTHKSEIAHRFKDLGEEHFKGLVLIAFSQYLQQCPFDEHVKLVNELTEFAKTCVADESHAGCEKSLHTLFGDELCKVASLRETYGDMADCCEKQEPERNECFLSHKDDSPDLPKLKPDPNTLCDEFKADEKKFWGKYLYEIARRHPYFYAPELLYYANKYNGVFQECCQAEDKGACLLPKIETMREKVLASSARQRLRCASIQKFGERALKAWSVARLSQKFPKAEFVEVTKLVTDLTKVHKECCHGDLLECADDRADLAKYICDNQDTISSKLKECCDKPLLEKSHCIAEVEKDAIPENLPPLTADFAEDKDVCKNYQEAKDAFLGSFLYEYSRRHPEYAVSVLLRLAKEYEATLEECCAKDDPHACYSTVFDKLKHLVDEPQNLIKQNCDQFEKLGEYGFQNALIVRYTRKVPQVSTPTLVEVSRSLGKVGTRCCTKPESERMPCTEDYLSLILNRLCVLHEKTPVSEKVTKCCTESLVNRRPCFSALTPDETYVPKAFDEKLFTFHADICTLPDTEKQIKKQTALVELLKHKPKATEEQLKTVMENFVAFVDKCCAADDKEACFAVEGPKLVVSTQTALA

Question: What does the source list for `O=c1cc(-c2ccccc2)oc2cc(O)c(O)c(O)c12` [BAICALEIN]?
Answer: KSV [1]: 1.51 ×10⁵ L/mol; Kq [1]: 3.02 ×10¹³ L/mol/s; KSV [2]: 2.11 ×10⁵ L/mol; Kq [2]: 4.22 ×10¹³ L/mol/s; KSV [3]: 1.96 ×10⁵ L/mol; Kq [3]: 3.92 ×10¹³ L/mol/s; KSV [4]: 1.96 ×10⁵ L/mol; Kq [4]: 3.92 ×10¹³ L/mol/s; KSV [5]: 1.76 ×10⁵ L/mol; Kq [5]: 3.52 ×10¹³ L/mol/s; KSV [6]: 1.6 ×10⁵ L/mol; Kq [6]: 3.2 ×10¹³ L/mol/s; K [7]: 2.7 ×10⁵ L/mol; K [8]: 1.88 ×10⁵ L/mol; K [9]: 4.85 ×10⁴ L/mol
